Measurements from publication PMC6320962, “Synthesis, Experimental and Density Functional Theory (DFT) Studies on Solubility of Camptothecin Derivatives” (Molecules, 2018).

Tests used:
[1] = clinical trial, early 1970s; cited from earlier work
[2] = in words; cited from earlier work
wild-type HIV-1 = tested on: wild-type HIV-1; parameters: method as in PMID 21344906; conditions: cited from earlier work

Compound `CC[C@@]1(O)C(=O)OCc2c1cc1n(c2=O)Cc2c-1nc1ccc(C3CCCCC3)cc1c2C` [P210, 10-Cyclohexyl-7-methyl-20(S)-camptothecin] has a melting point of 243 to 245 °C.
In the case of `CC[C@@](O)(C(=O)[O-])c1cc2n(c(=O)c1CO)Cc1cc3ccccc3nc1-2.[Na+]` [compound 15], the efficacy [1] is given as “low efficacy” and the side effects [1] is given as “unpredictable and severe side effects, including hemorrhagic cystitis and myelotoxicity”.
In the case of `CC[C@@]1(O)C(=O)OCc2c1cc1n(c2=O)Cc2c-1nc1ccc(N3CCOCC3)cc1c2C` [P211, 7-Methyl-10-morpholino-20(S)-camptothecin], the melting point is reported as 283 to 285 °C.
In the case of `CC[C@@]1(O)C(=O)OCc2c1cc1n(c2=O)Cc2cc3ccccc3nc2-1` [CPT, Camptothecin], the water solubility [2] is listed as “negligible water solubility”.
For `Cc1cc(/C=C/C#N)cc(C)c1Nc1ccnc(Nc2ccc(C#N)cc2)n1` [rilpivirine], the EC50 (wild-type HIV-1) is listed as 0.67 nM.
